Assay results: ChEMBL document CHEMBL4680122, “Design, synthesis and biological evaluation of new Axl kinase inhibitors containing 1,3,4-oxadiazole acetamide moiety as novel linker” (Eur J Med Chem, 2020)

Assays:
[1] = system: HT-29; experiment: Antiproliferative activity against human HT-29 cells measured after 72 hrs by MTT assay; conditions: HT-29, 72 h
[2] = system: A549; experiment: cells; conditions: Homo sapiens, A549, 72 h
Description: Antiproliferative activity against human A549 cells measured after 72 hrs by MTT assay

[3] = system: PC-3; experiment: cells; conditions: Homo sapiens, PC-3, 72 h
Description: Antiproliferative activity against human PC-3 cells measured after 72 hrs by MTT assay

[4] = system: MCF7; experiment: Antiproliferative activity against human MCF7 cells measured after 72 hrs by MTT assay; assay type: functional, cell-based; conditions: MCF7, 72 h

Compound | IC50 [1] | IC50 [2] | IC50 [3] | IC50 [4]
COc1cc2c(Oc3ccc(NC(=O)Cc4nnc(-c5ccc(Cl)cc5)o4)cc3F)ccnc2cc1OCCCN1CCC(C)CC1 | 2460 nM | 630 nM | 360 nM | –
COc1cc2c(Oc3ccc(NC(=O)Cc4ncc(-c5ccc(F)cc5)o4)cc3F)ccnc2cc1OCCCN1CCCCC1 | 1040 nM | 1040 nM | 530 nM | –
COc1cc2c(Oc3ccc(NC(=O)C(C)(C)c4nnc(-c5ccc(F)cc5)o4)cc3F)ccnc2cc1OCCCN1CCOCC1 | 2480 nM | 275 nM | 1790 nM | 1600 nM
COc1cc2c(Oc3ccc(NC(=O)c4nc(-c5ccc(F)cc5)no4)cc3)ccnc2cc1OCCCN1CCC(C)CC1 | 6380 nM | 870 nM | 1040 nM | –
COc1cc2c(Oc3ccc(NC(=O)C4(c5nnc(-c6ccc(F)cc6)o5)CC4)cc3F)ccnc2cc1OCCCN1CCC(C)CC1 | 442 nM | 120 nM | 2180 nM | 740 nM
COc1cc2nccc(Oc3ccc(NC(=O)C4(C(=O)Nc5ccc(F)cc5)CC4)cc3)c2cc1OC [CABOZANTINIB] | 4560 nM | 3750 nM | 8250 nM | –
COc1cc2c(Oc3ccc(NC(=O)Cc4ncc(-c5ccc(F)cc5)o4)cc3F)ccnc2cc1OCCCN1CCC(C)CC1 | 109 nM | 105 nM | 540 nM | –
COc1cc2c(Oc3ccc(NC(=O)c4ncc(-c5ccc(F)cc5)o4)cc3)ccnc2cc1OCCCN1CCC(C)CC1 | 1890 nM | 240 nM | 720 nM | –
COc1cc2c(Oc3ccc(NC(=O)Cc4ncc(-c5ccc(F)cc5)o4)cc3F)ccnc2cc1OCCCN1CCOCC1 | 13700 nM | 596 nM | 2410 nM | –
COc1ccc(-c2nnc(CC(=O)Nc3ccc(Oc4ccnc5cc(OCCCN6CCC(C)CC6)c(OC)cc45)c(F)c3)o2)cc1 | 7520 nM | 1560 nM | 410 nM | –
COc1cc2nccc(Oc3ccc(NC(=O)c4nnc(-c5ccc(F)cc5)o4)cc3)c2cc1OC | 52300 nM | 5140 nM | > 100000 nM | –
COc1cc2c(Oc3ccc(NC(=O)Cc4ncc(-c5ccc(F)cc5)o4)cc3F)ccnc2cc1OCCCN1CCN(C)CC1 | 2520 nM | 254 nM | 570 nM | –
COc1cc2nccc(Oc3ccc(NC(=O)c4cc(-c5ccc(F)cc5)on4)cc3)c2cc1OC | > 100000 nM | 40400 nM | 29400 nM | –
COc1cc2nccc(Oc3ccc(NC(=O)c4ncc(-c5ccc(F)cc5)o4)cc3)c2cc1OC | > 100000 nM | 5590 nM | 21900 nM | –
COc1cc2c(Oc3ccc(NC(=O)c4nnc(-c5ccc(F)cc5)o4)cc3)ccnc2cc1OCCCN1CCC(C)CC1 | 7890 nM | 2730 nM | 3810 nM | –
COc1cc2c(Oc3ccc(NC(=O)C4(c5nnc(-c6ccc(F)cc6)o5)CC4)cc3F)ccnc2cc1OCCCN1CCOCC1 | 9330 nM | 1660 nM | 13000 nM | > 100000 nM
COc1cc2c(Oc3ccc(NC(=O)C(C)(C)c4nnc(-c5ccc(F)cc5)o4)cc3F)ccnc2cc1OCCCN1CCN(C)CC1 | 1080 nM | 597 nM | 1900 nM | 2480 nM
COc1cc2nccc(Oc3ccc(NC(=O)c4nc(-c5ccc(F)cc5)no4)cc3)c2cc1OC | 39700 nM | 10300 nM | > 100000 nM | –
COc1cc2c(Oc3ccc(NC(=O)Cc4nnc(-c5ccc(F)cc5)o4)cc3F)ccnc2cc1OCCCN1CCOCC1 | 4300 nM | 103 nM | 680 nM | –
COc1cc2c(Oc3ccc(NC(=O)Cc4nc(-c5ccc(F)cc5)no4)cc3F)ccnc2cc1OCCCN1CCC(C)CC1 | 1160 nM | 106 nM | 330 nM | –
COc1cc2c(Oc3ccc(NC(=O)C(C)(C)c4nnc(-c5ccc(F)cc5)o4)cc3F)ccnc2cc1OCCCN1CCC(C)CC1 | 648 nM | 420 nM | 1490 nM | 370 nM
COc1cc2c(Oc3ccc(NC(=O)Cc4nnc(-c5ccc(F)cc5)o4)cc3F)ccnc2cc1OCCCN1CCN(C)CC1 | 3480 nM | 71 nM | 410 nM | –
COc1cc2c(Oc3ccc(NC(=O)Cc4nnc(-c5ccccc5)o4)cc3F)ccnc2cc1OCCCN1CCC(C)CC1 | 7810 nM | 920 nM | 4730 nM | –
COc1cc2c(Oc3ccc(NC(=O)Cc4nnc(-c5ccc(Br)cc5)o4)cc3F)ccnc2cc1OCCCN1CCC(C)CC1 | 583 nM | 102 nM | 680 nM | –

The next lines start with the values.

IC50 [1] | IC50 [2] | IC50 [3] | IC50 [4] | Compound
2540 nM | 52 nM | 1180 nM | 1050 nM | COc1cc2c(Oc3ccc(NC(=O)C(C)c4nnc(-c5ccc(F)cc5)o4)cc3F)ccnc2cc1OCCCN1CCOCC1 (stereo not drawn)
4170 nM | 178 nM | 340 nM | – | COc1cc2c(Oc3ccc(NC(=O)Cc4ncc(-c5ccc(F)cc5)o4)cc3F)ccnc2cc1OCCCN1CCCC1
554 nM | 119 nM | 400 nM | 460 nM | CCC(C(=O)Nc1ccc(Oc2ccnc3cc(OCCCN4CCC(C)CC4)c(OC)cc23)c(F)c1)c1nnc(-c2ccc(F)cc2)o1 (stereo not drawn)
1000 nM | 86 nM | 1260 nM | 1040 nM | COc1cc2c(Oc3ccc(NC(=O)C(C)c4nnc(-c5ccc(F)cc5)o4)cc3F)ccnc2cc1OCCCN1CCCCC1 (stereo not drawn)
570 nM | 78 nM | 1420 nM | 1040 nM | CCC(C(=O)Nc1ccc(Oc2ccnc3cc(OCCCN4CCCC4)c(OC)cc23)c(F)c1)c1nnc(-c2ccc(F)cc2)o1 (stereo not drawn)
813 nM | 813 nM | 400 nM | – | COc1cc2c(Oc3ccc(NC(=O)Cc4nnc(-c5ccc(F)cc5)o4)cc3F)ccnc2cc1OCCCN1CCCCC1
1540 nM | 38 nM | 970 nM | 2220 nM | CCC(C(=O)Nc1ccc(Oc2ccnc3cc(OCCCN4CCN(C)CC4)c(OC)cc23)c(F)c1)c1nnc(-c2ccc(F)cc2)o1 (stereo not drawn)
1080 nM | 92 nM | 1470 nM | 410 nM | CCC(C(=O)Nc1ccc(Oc2ccnc3cc(OCCCN4CCCCC4)c(OC)cc23)c(F)c1)c1nnc(-c2ccc(F)cc2)o1 (stereo not drawn)
2020 nM | 49 nM | 2530 nM | 2690 nM | CCC(C(=O)Nc1ccc(Oc2ccnc3cc(OCCCN4CCOCC4)c(OC)cc23)c(F)c1)c1nnc(-c2ccc(F)cc2)o1 (stereo not drawn)
2370 nM | 91 nM | 210 nM | – | COc1cc2c(Oc3ccc(NC(=O)Cc4nnc(-c5ccc(F)cc5)o4)cc3F)ccnc2cc1OCCCN1CCCC1
238 nM | 82 nM | 280 nM | – | COc1cc2c(Oc3ccc(NC(=O)Cc4nnc(-c5ccc(F)cc5)o4)cc3F)ccnc2cc1OCCCN1CCC(C)CC1
1960 nM | 75 nM | 1700 nM | 1630 nM | COc1cc2c(Oc3ccc(NC(=O)C(C)c4nnc(-c5ccc(F)cc5)o4)cc3F)ccnc2cc1OCCCN1CCN(C)CC1 (stereo not drawn)
871 nM | 215 nM | 1760 nM | 470 nM | COc1cc2c(Oc3ccc(NC(=O)C(C)(C)c4nnc(-c5ccc(F)cc5)o4)cc3F)ccnc2cc1OCCCN1CCCCC1
1030 nM | 263 nM | 1050 nM | – | COc1cc2c(Oc3ccc(NC(=O)C(C)(C)c4nnc(-c5ccc(F)cc5)o4)cc3F)ccnc2cc1OCCCN1CCCC1
